Data from ChEMBL document CHEMBL2363022, “Malaria Box Schistosomiasis Screening Data” (2013).

How the values were obtained:
Type in all cases: functional
Schistosoma mansoni [1] = experiment: (§1) MMV: Motility assay. Percent change (relative to DMSO controls) @ 5 uM of movement of 4-5 Schistosoma mansoni adult males after 48 h as measured by the Consensus Voting Luminance Difference algorithm available on WormAssay (PMID:22303493). Occasional incongruence ocurrs between the motility scores and the visually adjudicated 'toxicity scores'. In these cases the 'toxicity score' should be prioritized. Only those Malaria box 'Drug-like' cpds yielding the most severe phenotypes vs. somules were tested. Caffrey group UCSF.
Schistosoma mansoni [2] = experiment: MMV: Toxicity @ 5 uM to 4-5 Schistosoma mansoni adult males after 48 h on a scale of 0 (none) - 4 (most). Includes short descriptors of effects as judged visually (PMID:19597541). Only those Malaria box 'drug-like' cpds yielding the most severe phenotypes vs. somules were tested. Caffrey group UCSF.
Schistosoma mansoni [3] = test system: Schistosoma mansoni; design: scale not given here
Schistosoma mansoni [4] = test system: Schistosoma mansoni; design: scale not given here; remark: listed apart in the source
Schistosoma mansoni [5] = experiment: MMV: Toxicity @ 5 uM to 4-5 Schistosoma mansoni adult males after 24 h on a scale of 0 (none) - 4 (most). Includes short descriptors of effects as judged visually (PMID:19597541). Only those Malaria box 'drug-like' cpds yielding the most severe phenotypes vs. somules were tested. Caffrey group UCSF.
Schistosoma mansoni [6] = test system: Schistosoma mansoni; design: scale not given here; remark: listed apart in the source
Schistosoma mansoni [7] = experiment: as §1, with “72” for “48”
Schistosoma mansoni [8] = experiment: as §1, with “24” for “48”
Schistosoma mansoni [9] = experiment: MMV: Toxicity @ 5 uM to 4-5 Schistosoma mansoni adult males after 72 h on a scale of 0 (none) - 4 (most). Includes short descriptors of effects as judged visually (PMID:19597541). Only those Malaria box 'drug-like' cpds yielding the most severe phenotypes vs. somules were tested. Caffrey group UCSF.

SMILES	Motility (Schistosoma mansoni [1])	Toxicity (Schistosoma mansoni [2])	Toxicity (Schistosoma mansoni [3])	Toxicity (Schistosoma mansoni [4])	Toxicity (Schistosoma mansoni [5])	Toxicity (Schistosoma mansoni [6])	Motility (Schistosoma mansoni [7])	Motility (Schistosoma mansoni [8])	Toxicity (Schistosoma mansoni [9])
CC(C)(C)CC(C)(C)NCC(O)COc1ccc(Cl)cc1Cl (stereo not drawn)	53	1	4	0	0	4			
CC(C)(C)c1ccc(C(=O)Nc2nc3ccccc3s2)cc1	113.8	0	0	2	0	0	118	58.5	0
O=C(Nc1nc(-c2ccccn2)cs1)c1ccccc1Br	80.4	0	4	2	0	2	88	69.2	0
CCOC(=O)c1cnc2ccc(Cl)cc2c1NCCCN(C)C			1	1		1			
OCCNc1nc(Nc2ccc(Cl)c(Cl)c2)nc2ccccc12			4	2		0			
CCOc1ccc(/C=C/c2nc(=O)c3ccccc3o2)cc1			0	0		0			
COc1ccc(CNC(=O)c2cc3c(=O)n4ccccc4nc3n(CCc3ccccc3)c2=N)cc1			4	1		4			
CCOc1ccccc1CNC(=O)C1c2ccccc2C(=O)N(CC(C)C)C1c1cccs1 (stereo not drawn)			4	0		0			
COc1ccc2c(c1)OC(O)(C(F)(F)C(F)(F)F)CC2=O (stereo not drawn)			0	0		0			
Cc1ccc2c(C)nc(Nc3nc(C)cc(-c4ccccc4)n3)nc2c1			0	0		0			
CCCCCCn1c(=N)n(CC(O)COc2cccc(C)c2)c2ccccc21.Cl (stereo not drawn)			4	4		4			
CC1=C(CC(=O)c2cccc([N+](=O)[O-])c2)C(=O)c2ccccc2C1=O			2	0		2			
Cc1ccc(C(=O)c2oc3ccc4c(C)cc(=O)oc4c3c2C)cc1			0	0		0			
Cc1ccc(-c2cc3c(SCC(=O)Nc4cc(C(F)(F)F)ccc4Cl)nccn3n2)cc1			0	0		0			
O=C(c1ccccc1F)N(Cc1ccc(Cl)cc1)c1ccccn1			0	0		0			
COc1cccc(Nc2nc(NCCO)c3ccccc3n2)c1.Cl			0	0		0			
O=C(Nc1ccc(-c2nc3cc4ccccc4cc3[nH]2)cc1)c1cccc(Br)c1			2	0		0			
O=C(Nc1ccc(Cl)c(Cl)c1)Nc1ccc(Cl)c(Cl)c1			4	3		3			
COc1ccc(NC(=O)C2c3ccccc3C(=O)N(CC(C)C)C2c2cccs2)cc1 (stereo not drawn)			0	1		0			

SMILES	Motility (Schistosoma mansoni [1])	Toxicity (Schistosoma mansoni [2])	Toxicity (Schistosoma mansoni [3])	Toxicity (Schistosoma mansoni [4])	Toxicity (Schistosoma mansoni [5])	Toxicity (Schistosoma mansoni [6])	Motility (Schistosoma mansoni [7])	Motility (Schistosoma mansoni [8])	Toxicity (Schistosoma mansoni [9])
O=C(Nc1ccccc1O)c1ccc(-c2ccc(Cl)cc2Cl)o1			0	0		0			
CC(=O)Nc1nnc(SCc2c(C)cc(C(C)(C)C)cc2C)s1			0	0		0			
Cc1cccc(Nc2nc(N)c3ccccc3n2)c1.Cl			0	2		0			
CCOc1ccc(Nc2ccnc3cc(Cl)ccc23)cc1			0	2		0			
CCOC(=O)c1cnc2ccc(OC)cc2c1Nc1ccc(N2CCN(C)CC2)cc1			4	0		4			
COc1ccc(-c2nc(NC(=O)CS(=O)(=O)c3ccc(F)cc3)sc2C)cc1			0	0		0			
CCCCc1c(C)nc2c(OC)cccc2c1O			0	0		0			
COc1ccc(C(C)=O)cc1N1C(=O)C2C(C1=O)C1(c3ccccc3)C(=O)C2(c2ccccc2)C(c2ccc(C)cc2)=C1c1ccc(C)cc1 (stereo not drawn)			0	0		0			
Cn1c(C(=O)c2cccc3ccccc23)nc2ccccc21			0	0		0			
CCCn1c(=N)c(C(=O)NC2CCCCC2)cc2c(=O)n3cccc(C)c3nc21			0	0		0			
Cc1[nH]c(-c2ccc(F)cc2)cc1C(=O)NC1CCN(Cc2ccccc2)CC1			3	0		0			
COc1ccc(Nc2cc(C)nc(NCc3ccccc3)n2)cc1			3	2		3			
CN(C)c1ccc(-c2nc3cc(N)ccc3[nH]2)cc1			0	0		0			
CCCCCn1c(=N)n(CC(O)COc2cccc(C)c2)c2ccccc21.Cl (stereo not drawn)			4	2		4			
COc1cccc(C(=O)Nc2ccc(-c3nc4ccccc4[nH]3)cc2)c1			0	0		0			
C=C(C)CCC(C)N1CCC(N2CCC(C(=O)NCCc3ccccc3)CC2)CC1 (stereo not drawn)			2	0		0			
CCCCCCC(O)(c1ccc(F)cc1)C(CN1CCOCC1)c1ccccc1.Cl (stereo not drawn)			0	0		0			
Cl.Oc1ccccc1CNCC12CC3CC(CC(C3)C1)C2			0	0		0			
COc1cc2cc(C(=O)Nc3ccccc3)c(N)nc2cc1OC			2	0		0			

SMILES	Motility (Schistosoma mansoni [1])	Toxicity (Schistosoma mansoni [2])	Toxicity (Schistosoma mansoni [3])	Toxicity (Schistosoma mansoni [4])	Toxicity (Schistosoma mansoni [5])	Toxicity (Schistosoma mansoni [6])	Motility (Schistosoma mansoni [7])	Motility (Schistosoma mansoni [8])	Toxicity (Schistosoma mansoni [9])
CCOc1ccc(-c2nonc2NC(=O)c2cccc(C)c2)cc1OCC			0	0		0			
CCCCCC(=O)N1c2ccccc2N=C2CC(c3ccc(OC)c(OC)c3)CC(O)=C2C1c1ccc(C(F)(F)F)cc1 (stereo not drawn)			0	0		0			
c1ccc(-c2ccc(-c3nc4ccccc4[nH]3)cc2)cc1			0	0		0			
O=C(Nc1ccc(Br)cc1)Nc1cccc(Cl)c1			3	0		0			
COc1ccc(-c2nonc2NC(=O)c2cccc(C)c2)cc1OC			0	0		0			
CCCCCCc1cc2cc(-c3nc4ccccc4[nH]3)c(=Nc3ccccc3C)oc2cc1O			3	0		3			
CCOC(=O)c1c[nH]c2c(CC)cccc2c1=O			3	0		0			
COc1ccc(CCn2c(=N)c(C(=O)NCc3cccnc3)cc3c(=O)n4cccc(C)c4nc32)cc1			4	2		0			
Nc1ccn([C@@H]2O[C@H](CO)[C@@H](O)[C@H]2O)c(=O)n1 [CYTIDINE]			0	0		0			
CCOC(=O)C1(Cc2ccccc2)CCN(Cc2cccc(OC)c2O)CC1			2	1		1			
COc1cccc(NC(=O)Cn2c(C)c(C#N)c3ccccc32)c1			0	0		0			
COCCNC(=O)c1ccc(OC2CCN(Cc3ccc(F)c(F)c3)CC2)c(Cl)c1			0	0		0			
COc1ccc(-c2nc(N3CCN(C(=O)C4CCCCC4)CC3)c3c4c(sc3n2)CCCC4)cc1			0	0		0			
Cc1ccc(Cl)cc1N1CCN(CCCNC(=O)C2CCN(c3nc4ccccc4[nH]3)CC2)CC1			3	0		0			
c1ccc(CNc2nc(Nc3ccccc3)nc3ccccc23)cc1			2	2		2			
Cc1ccc(C)c(Cn2c(N3CCC(C(=O)NCc4cccs4)CC3)nc3ccccc32)c1			0	0		0			
O=C(NC1CCCC1)c1ccc(N2CCC(NCc3cccc(C(F)(F)F)c3)CC2)cc1			1	0		0			
Cc1c(C)n(CC(O)CNC2CCCCC2C)c2ccccc12 (stereo not drawn)			0	0		0			
